Values quoted from earlier work, collected in patent US7741050B2, “Identification of agonistic autoantibodies” (Max-Delbrueck-Centrum fuer Molkulare Medizin, priority 2002, dated 2010).

Target: T1, AT1 receptor of cultivated cardiomyocytes (Rattus norvegicus, UniProt P25095)
T1 construct: can stimulate the AT1 receptor of cultivated cardiomyocytes; endogenous in cells; host or cells: primary cultivated cardiomyocytes of newborn rats
T1 sequence (P25095 1-359): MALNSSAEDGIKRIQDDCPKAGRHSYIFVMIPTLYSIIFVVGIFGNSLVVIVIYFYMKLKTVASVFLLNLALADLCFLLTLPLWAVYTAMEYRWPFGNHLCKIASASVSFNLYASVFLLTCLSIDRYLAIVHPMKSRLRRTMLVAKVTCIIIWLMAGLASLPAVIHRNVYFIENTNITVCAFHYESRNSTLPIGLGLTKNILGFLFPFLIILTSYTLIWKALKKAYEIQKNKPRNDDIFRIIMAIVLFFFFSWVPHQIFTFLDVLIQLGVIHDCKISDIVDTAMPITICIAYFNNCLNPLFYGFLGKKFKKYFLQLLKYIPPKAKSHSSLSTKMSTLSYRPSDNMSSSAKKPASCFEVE
Conditions: Losartan 1 μM added to cardiomyocytes stimulated by antibodies of preeclamptic women; cited from earlier work

Q: Which beats per minute does the source give for `CCCCc1nc(Cl)c(CO)n1Cc1ccc(-c2ccccc2-c2nn[nH]n2)cc1` [Losartan] here?
A: Its beats per minute is “reduced”.
